According to US12221494B2, “Short synthetic peptides and their uses for treating retinal degenerative diseases and/or tissue injuries” (MacKay Memorial Hospital, priority 2019, dated 2025):
Ends that are not written are not given here.

What was measured:
survivin mRNA = experiment: Real-time qPCR of survivin mRNA in C2C12 cells; assay type: cell-based, mouse; conditions: for survivin mRNA induction, in words / survivin mRNA induction compared to solvent control: C2C12 cells in low serum media, 20 μM peptide, 6 h
Experimental: Total RNA was extracted from cells using TRIzol (Invitrogen). Synthesis of cDNA was performed with 1 μg of total RNA at 50° C. for 50 min using oligo(dT) primers and reverse transcriptase (Superscript III; Invitrogen). Briefly, quantification of cDNA was performed in the LightCycler (Roche, Mannheim, Germany) using the DNA Master SYBR Green I kit (Roche) with the following cycling conditions: initial denaturation at 95° C. for 10 min, followed by 40 cycles at 95° C. for 10 s, 60° C. for 10 s, and 72° C. for 10 s and a 5-min terminal incubation at 72° C. The data were calculated with AACt. The expression was then normalized against the expression of glyceraldehyde-3-phosphate dehydrogenase (GAPDH). The PCR primers were mouse Survivin sense, 5′-[…]-3′ (SEQ ID NO: 27), anti-sense, 5′-[…]-3′ (SEQ ID NO: 28) (accession number: NM_001012273.1; PCR product: 136 bp); mouse GAPDH sense, 5′-[…]-3′ (SEQ ID NO: 29), anti-sense, 5′-[…]-3′ (SEQ ID NO: 30) (NM_001289726.1; 149 bp). For analysis rabbit inflammatory gene expression, The PCR primers were rabbit TNF-αsense, 5′-[…]-3′ (SEQ ID NO: 31), anti-sense, 5′-[…]-3′ (SEQ ID NO: 32) (accession number: NM 001082263.1); rabbit IL-1βsense, 5′-[…]-3′(SEQ ID NO: 33), anti-sense, 5′-[…]-3′ (SEQ ID NO: 34) (NM 001082201.1); rabbit GAPDH sense, 5′-[…]-3′ (SEQ ID NO: 35), anti-sense, 5′-[…]-3′ (SEQ ID NO: 36) (accession number:NM 001082253.1). The cycle threshold (Ct) values of the PCR product and a GAPDH (Glyceraldehyde 3-phosphate dehydrogenase) control mRNA were used to calculate relative quantities of mRNA.
Similar to the approach in Example 1.2.1, the expression level of survivin mRNA in C2C12 cells was used as an indicator for the function of the 6-mer variants in Tables 3 to 5. Briefly, C2C12 cells in low serum media were treated with 20 μM the 6-mer variants for 6 h. […] The results also confirmed that alanine substation at the glutamic acid (E) residues would severely impair the 6-mer activity.

[1] = system: Sprague-Dawley rats, retinal ischemia/reperfusion (I/R) injury; experiment: TUNEL staining of I/R-injured rat retina (20 h); assay type: in vivo; conditions: for Number of TUNEL-positive cells in retina: subconjunctival injection 1 mM 4 h before I/R, 20 hours after I/R injury, Vehicle + I/R 27.2 ± 2.7; for I/R-induced retinal cell apoptosis (TUNEL staining), in words: subconjunctival injection prior to I/R, 20 h reperfusion
Experimental: Experimental procedures were approved by the Mackay Memorial Hospital Review Board (Taiwan, R.O.C.). All surgeries were performed under aseptic conditions. Adult 10-week-old male Sprague-Dawley rats (initial body weight=312±11 g) were anesthetized by an intraperitoneal injection of xylazine (10 mg/kg). Peptide was dissolved in 0.85% normal saline to 1 mM and delivered by the subconjunctival injection of 100 μL peptide through a 31-Gneedle with a micro-syringe before the induction of I/R. Normal saline was as a vehicle control. Rat I/R was performed after peptide or vehicle injection for 4 h. Pupils were dilated with 0.5% tropicamide and 0.5% phenylephrine. Body temperature was maintained at 37° C. using a heating blanket After dilation of the pupil, the anterior chamber of the right eye was cannulated with a 27-gauge needle connected to a physiological saline reservoir. The intraocular pressure (IOP) was raised to 110 mmHg by keeping the reservoir at 150 cm above the eye, and retinal ischemia was confirmed by observing whitening of the iris and the loss of the red reflex of the retina. After 90 min of ischemia, the cannulating needle was withdrawn and the IOP was returned to normal pressure, resulting in recovery of the blood supply from the retinal artery and reperfusion injury induced. The reperfusion was evident by the return of the red reflex. Corneal analgesia was achieved using 1 or 2 drops of 0.4% oxybuprocaine hydrochloride, and Ofloxacin ophthalmic gel (0.3%) was applied topically to the eye before and after the procedure. Only the right eye was used in all experiments. A sham procedure was performed at left eye served as an intra-animal control.
After I/R for 20 h, rats (n=6 in each group) were euthanized by an overdose of pentobarbital. Enucleated eyeballs were fixed in 4% PFA for 24 h at 4° C. Fixed retinal tissues were embedded in paraffin. To identify apoptosis of retinal cells, 5 μm sections thick cut through the optic disc, de-paraffinized, rehydrated, incubatedwith 20 μg/mL proteinase K for 10 min, and immunofluorescence staining of apoptotic cells was performed using a terminal deoxynucleotidyl transferase(TdT)-mediated dUTP nick-end labeling (TUNEL)-based kit (Roche Molecular Biochemicals, Indianapolis, IN) according to the manufacturer's instructions. Nuclei were located by counterstaining with Hoechst 33258 for 7 min Sections were observed under an epifluorescence microscope (Zeiss Axioplan 2 imaging; Zeiss, Oberkochen, Germany) equipped with a charge-coupled device (CCD) camera (Zeiss AxioCam HRm, Zeiss) (×400, 6 fields/sample), and quantification was performed using Axiovert software (Zeiss AxioVision Release 4.8.2, Zeiss). Three sections per eye were averaged and the mean of six eyes was recorded as the representative value for each group.
In this example, the neuroprotective effect of the 6-mer variant peptides on neural retina cells and retinal capillary system was investigated using a rat model of I/R injury described in the “Material and Methods” section. Briefly, 6-mer variant peptide (1 mM, 120 μl) was injected into the subconjunctival space of Sprague-Dawley rats for 4 h before the induction of I/R. Then, I/R injury was induced in rat retinas by increasing the intraocular pressure (IOP) in the eye to 110 mmHg for 90 min, followed by 20 h of reperfusion. Subsequently, the level of retinal cell apoptosis was evaluated using TUNEL staining. In addition, the retinal morphology was analyzed with H&E staining 14 days after the I/R injury. Results are summarized in FIGS. 6 to 10, and Tables 6 to 9.

O=[N+]([O-])c1ccc2c(c1)S(=O)(=O)C=C2 [STAT3 inhibitor V, reference compound]
survivin mRNA expression induced by the 6-mer dS in cells pretreated with STAT3 inhibitor (survivin mRNA; C2C12 cells, 2.6-fold without inhibitor): 1.3 fold

NH2-Ser-(D-Leu)-Gly-Ala-Glu-Gln-COOH (SLGAEQ; HELM PEPTIDE1{S.[dL].G.A.E.Q}$$$$V2.0; SMILES CC(C)C[C@@H](NC(=O)[C@@H](N)CO)C(=O)NCC(=O)N[C@@H](C)C(=O)N[C@@H](CCC(=O)O)C(=O)N[C@@H](CCC(N)=O)C(=O)O) [6-mer dL]
survivin mRNA induction, in words (survivin mRNA): hamper the survivin gene induction activity significantly

NH2-Ser-Ala-Gly-Ala-Glu-Gln-COOH (SAGAEQ; not fully specified (N-terminus, C-terminus); printed as NH2-Ser-Ala-Gly-Ala-Glu-Gln-COOH) [6-mer La]
survivin mRNA induction compared to solvent control (survivin mRNA): 1.5 fold

NH2-Ser-Ile-Gly-Ala-Glu-Gln-COOH (SIGAEQ; not fully specified (N-terminus, C-terminus); printed as NH2-Ser-Ile-Gly-Ala-Glu-Gln-COOH) [6-mer Li]
survivin mRNA induction compared to solvent control (survivin mRNA): 2.1 fold | Number of TUNEL-positive cells in retina [1]: 9.8 ± 1.4 /200 μm | I/R-induced retinal cell apoptosis (TUNEL staining), in words [1]: reduced the retinal cell apoptosis induced by I/R

NH2-Ser-Leu-Ala-Ala-Glu-Gln-COOH (SLAAEQ; not fully specified (N-terminus, C-terminus); printed as NH2-Ser-Leu-Ala-Ala-Glu-Gln-COOH) [6-mer Ga]
survivin mRNA induction compared to solvent control (survivin mRNA): 1.6 fold

NH2-Ser-Leu-Asn-Ala-Glu-Gln-COOH (SLNAEQ; not fully specified (N-terminus, C-terminus); printed as NH2-Ser-Leu-Asn-Ala-Glu-Gln-COOH) [6-mer Gn]
survivin mRNA induction compared to solvent control (survivin mRNA): 1.5 fold

NH2-Ser-Leu-Gly-Ala-(D-Glu)-Gln-COOH (SLGAEQ; HELM PEPTIDE1{S.L.G.A.[dE].Q}$$$$V2.0; SMILES CC(C)C[C@H](NC(=O)[C@@H](N)CO)C(=O)NCC(=O)N[C@@H](C)C(=O)N[C@H](CCC(=O)O)C(=O)N[C@@H](CCC(N)=O)C(=O)O) [6-mer dE]
survivin mRNA induction, in words (survivin mRNA): moderate induction on survivin mRNA level

NH2-Ser-Leu-Gly-Ala-Asp-Gln-COOH (SLGADQ; not fully specified (N-terminus, C-terminus); printed as NH2-Ser-Leu-Gly-Ala-Asp-Gln-COOH) [6-mer Ed]
survivin mRNA induction, in words (survivin mRNA): severely impaired the survivin mRNA induction

NH2-Ser-Leu-Gly-Ala-Glu-(D-Gln)-COOH (SLGAEQ; HELM PEPTIDE1{S.L.G.A.E.[dQ]}$$$$V2.0; SMILES CC(C)C[C@H](NC(=O)[C@@H](N)CO)C(=O)NCC(=O)N[C@@H](C)C(=O)N[C@@H](CCC(=O)O)C(=O)N[C@H](CCC(N)=O)C(=O)O) [6-mer dQ]
survivin mRNA induction, in words (survivin mRNA): hamper the survivin gene induction activity significantly

NH2-Ser-Leu-Gly-Ala-Glu-Ala-COOH (SLGAEA; not fully specified (N-terminus, C-terminus); printed as NH2-Ser-Leu-Gly-Ala-Glu-Ala-COOH) [6-mer Qa]
survivin mRNA induction compared to solvent control (survivin mRNA): 1.6 fold

NH2-Ser-Leu-Gly-Ala-Glu-Asn-COOH (SLGAEN; not fully specified (N-terminus, C-terminus); printed as NH2-Ser-Leu-Gly-Ala-Glu-Asn-COOH) [6-mer Qn]
survivin mRNA induction compared to solvent control (survivin mRNA): 2.1 fold | Number of TUNEL-positive cells in retina [1]: 12.5 ± 0.89 /200 μm | I/R-induced retinal cell apoptosis (TUNEL staining), in words [1]: reduced the retinal cell apoptosis induced by I/R

NH2-Ser-Leu-Gly-Glu-Glu-Gln-COOH (SLGEEQ; not fully specified (N-terminus, C-terminus); printed as NH2-Ser-Leu-Gly-Glu-Glu-Gln-COOH) [6-mer Ae]
survivin mRNA induction compared to solvent control (survivin mRNA): 1.5 fold

NH2-Ser-Leu-Gly-Gly-Glu-Gln-COOH (SLGGEQ; not fully specified (N-terminus, C-terminus); printed as NH2-Ser-Leu-Gly-Gly-Glu-Gln-COOH) [6-mer Ag]
survivin mRNA induction compared to solvent control (survivin mRNA): 1.5 fold

NH2-Ser-Leu-Gly-Ile-Glu-Gln-COOH (SLGIEQ; not fully specified (N-terminus, C-terminus); printed as NH2-Ser-Leu-Gly-Ile-Glu-Gln-COOH) [6-mer Ai]
survivin mRNA induction, in words (survivin mRNA): severely impaired the survivin mRNA induction

NH2-Ser-Leu-Gly-Ser-Glu-Gln-COOH (SLGSEQ; not fully specified (N-terminus, C-terminus); printed as NH2-Ser-Leu-Gly-Ser-Glu-Gln-COOH) [6-mer As]
survivin mRNA induction, in words (survivin mRNA): severely impaired the survivin mRNA induction
